According to ChEMBL document CHEMBL1123701, “Synthesis and quantitative structure-activity relationship analysis of N-triiodoallyl- and N-iodopropargylazoles. New antifungal agents” (1987):
Values after ≈ are worked out from the molar mass of the structure shown.

Experiments:
[1] = system: Aspergillus fumigatus; experiment: Antifungal activity against Aspergillus fumigatus Saito strain; type: functional
[2] = system: Candida albicans; experiment: Antifungal activity against Candida albicans C-A-24 strain; type: functional
[3] = system: Cryptococcus neoformans; experiment: Antifungal activity against Cryptococcus neoformans Cr-1 strain; type: functional
[4] = system: Trichophyton interdigitale; experiment: Antifungal activity towards Trichophyton interdigitale; type: functional
[5] = system: Trichophyton benhamiae; experiment: Antifungal activity towards Trichophyton mentagrophytes 530324 strain; type: functional, Arthroderma benhamiae

Row | Structure (SMILES) | MIC [1] [µg/mL] | MIC [2] [µg/mL] | MIC [3] [µg/mL] | MIC [4] [µg/mL] | MIC [5] [µg/mL]
1 | COc1ccc(-c2nnn(CC(I)=C(I)I)n2)cc1 | 25 (≈ 42.1 µM) | > 100 | > 100 | > 100 | 25 (≈ 42.1 µM)
2 | N#Cc1ccc(-c2nnn(CC#CI)n2)cc1 | 6.25 (≈ 18.7 µM) | 50 (≈ 149 µM) | 50 (≈ 149 µM) | 1.56 (≈ 4.66 µM) | 3.13 (≈ 9.34 µM)
3 | O=[N+]([O-])c1c(Cl)c(Cl)n(CC#CI)c1Cc1cc(Cl)cc(Cl)c1O | 12.5 (≈ 24 µM) | 25 (≈ 48.1 µM) | 3.13 (≈ 6.02 µM) | 3.13 (≈ 6.02 µM) | 3.13 (≈ 6.02 µM)
4 | Cc1cc(C)n(CC#CI)n1 | 0.78 (≈ 3 µM) | 6.25 (≈ 24 µM) | 3.13 (≈ 12 µM) | 0.78 (≈ 3 µM) | 0.78 (≈ 3 µM)
5 | Cc1ccnn1CC#CI | 0.78 (≈ 3.17 µM) | 6.25 (≈ 25.4 µM) | 1.56 (≈ 6.34 µM) | 0.78 (≈ 3.17 µM) | 0.39 (≈ 1.59 µM)
6 | O=[N+]([O-])c1c(Cl)c(Cl)n(CC(I)=C(I)I)c1Cc1cc(Cl)cc(Cl)c1O | > 25 | > 25 | > 25 | 25 (≈ 32.3 µM) | 25 (≈ 32.3 µM)
7 | Cc1nnnn1CC#CI | 6.25 (≈ 25.2 µM) | 6.25 (≈ 25.2 µM) | 3.13 (≈ 12.6 µM) | 3.13 (≈ 12.6 µM) | 3.13 (≈ 12.6 µM)
8 | CC(=O)c1cccn1CC(I)=C(I)I | 12.5 (≈ 23.7 µM) | 12.5 (≈ 23.7 µM) | > 25 | 0.39 (≈ 0.74 µM) | 1.56 (≈ 2.96 µM)
9 | CCc1nnnn1CC(I)=C(I)I | 25 (≈ 48.5 µM) | > 25 | > 25 | 3.13 (≈ 6.07 µM) | 1.56 (≈ 3.02 µM)
10 | CCOC(=O)c1cn(CC(I)=C(I)I)c(Cl)c1Cl | 25 (≈ 39.9 µM) | 25 (≈ 39.9 µM) | 25 (≈ 39.9 µM) | 3.13 (≈ 5 µM) | 3.13 (≈ 5 µM)
11 | Cc1ccc(-c2nnn(CC(I)=C(I)I)n2)cc1 | > 100 | > 100 | > 100 | > 100 | > 100
12 | CCCCCCCc1nnn(CC(I)=C(I)I)n1 |  | 12.5 (≈ 21.3 µM) |  |  | 0.78 (≈ 1.33 µM)
13 | Cc1cncn1CC(I)=C(I)I | 3.13 (≈ 6.26 µM) | 12.5 (≈ 25 µM) | 12.5 (≈ 25 µM) | 1.56 (≈ 3.12 µM) | 1.56 (≈ 3.12 µM)
14 | CC(C)(C)c1nnnn1CC#CI | 6.25 (≈ 21.5 µM) | 12.5 (≈ 43.1 µM) | 25 (≈ 86.2 µM) | 0.78 (≈ 2.69 µM) | 3.13 (≈ 10.8 µM)
15 | O=[N+]([O-])c1ncnn1CC(I)=C(I)I | 0.39 (≈ 0.733 µM) | 12.5 (≈ 23.5 µM) | 0.78 (≈ 1.47 µM) | 0.2 (≈ 0.376 µM) | 0.39 (≈ 0.733 µM)
16 | CC(C)(C)c1nnn(CC(I)=C(I)I)n1 |  | > 25 | > 25 |  | 0.39 (≈ 0.717 µM)
17 | IC#CCn1nnc(-c2ccc(C3N=NN=N3)cc2)n1 | > 100 | > 100 | > 100 | 1.56 (≈ 4.13 µM) | 1.56 (≈ 4.13 µM)
18 | CC(C)c1nnnn1CC(I)=C(I)I |  |  |  |  | 3.13 (≈ 5.91 µM)

Second part, the compound after the results:

Row | MIC [1] [µg/mL] | MIC [2] [µg/mL] | MIC [3] [µg/mL] | MIC [4] [µg/mL] | MIC [5] [µg/mL] | Structure (SMILES)
19 | 3.13 (≈ 8.28 µM) | 3.13 (≈ 8.28 µM) | 1.56 (≈ 4.13 µM) | 0.1 (≈ 0.264 µM) | 0.1 (≈ 0.264 µM) | FC(F)(F)c1cccc(-c2nnn(CC#CI)n2)c1
20 | 0.78 (≈ 2.35 µM) | 6.25 (≈ 18.8 µM) | 1.56 (≈ 4.7 µM) | 0.1 (≈ 0.301 µM) | 0.2 (≈ 0.602 µM) | CCCCCCCc1nnnn1CC#CI
21 | 0.78 (≈ 2.26 µM) | 0.78 (≈ 2.26 µM) | 0.39 (≈ 1.13 µM) | 0.1 (≈ 0.29 µM) | 0.1 (≈ 0.29 µM) | Clc1cccc(-c2nnn(CC#CI)n2)c1
22 | 0.78 (≈ 3.35 µM) | 1.56 (≈ 6.69 µM) | 1.56 (≈ 6.69 µM) | 0.78 (≈ 3.35 µM) | 0.39 (≈ 1.67 µM) | IC#CCn1nccn1
23 | 0.78 (≈ 2.56 µM) |  |  | 0.1 (≈ 0.329 µM) | 0.1 (≈ 0.329 µM) | CCCCCc1nnn(CC#CI)n1
24 | 0.39 (≈ 1.41 µM) | 0.78 (≈ 2.83 µM) | 0.39 (≈ 1.41 µM) | 0.39 (≈ 1.41 µM) | 0.1 (≈ 0.362 µM) | O=[N+]([O-])c1cccn1CC#CI
25 | 0.39 (≈ 1.42 µM) | 1.56 (≈ 5.69 µM) | 1.56 (≈ 5.69 µM) | 0.78 (≈ 2.85 µM) | 0.39 (≈ 1.42 µM) | IC#CCn1nnc(C2CC2)n1
26 |  |  |  | 0.1 (≈ 0.189 µM) | 0.1 (≈ 0.189 µM) | CCCc1nnnn1CC(I)=C(I)I
27 |  |  |  | 0.2 (≈ 0.358 µM) | 0.1 (≈ 0.179 µM) | CCCCCc1nnn(CC(I)=C(I)I)n1
28 | 1.56 (≈ 4.12 µM) | 1.56 (≈ 4.12 µM) | 0.39 (≈ 1.03 µM) | 0.1 (≈ 0.264 µM) | 0.1 (≈ 0.264 µM) | Clc1cc(Cl)cc(-c2nnn(CC#CI)n2)c1
29 | 0.2 (≈ 0.388 µM) | 0.78 (≈ 1.51 µM) | 0.78 (≈ 1.51 µM) | 0.1 (≈ 0.194 µM) | 0.2 (≈ 0.388 µM) | CCc1nnn(CC(I)=C(I)I)n1
30 |  |  | 25 (≈ 73.5 µM) | 0.1 (≈ 0.294 µM) | 0.1 (≈ 0.294 µM) | COc1ccc(-c2nnn(CC#CI)n2)cc1
31 | 25 (≈ 43.3 µM) | > 25 | > 25 | 0.1 (≈ 0.173 µM) | 0.1 (≈ 0.173 µM) | IC(I)=C(I)Cn1nnnc1Cc1ccccc1
32 | 0.1 (≈ 0.362 µM) |  |  | 0.1 (≈ 0.362 µM) | 0.1 (≈ 0.362 µM) | CCCc1nnn(CC#CI)n1
33 |  |  |  | 0.2 (≈ 0.58 µM) | 0.1 (≈ 0.29 µM) | Clc1ccc(-c2nnn(CC#CI)n2)cc1
34 | 0.1 (≈ 0.362 µM) | 0.78 (≈ 2.83 µM) | 0.1 (≈ 0.362 µM) | 0.78 (≈ 2.83 µM) | 0.2 (≈ 0.725 µM) | O=[N+]([O-])c1ccn(CC#CI)c1
35 | 0.2 (≈ 0.61 µM) | 0.78 (≈ 2.38 µM) | 0.78 (≈ 2.38 µM) | 0.1 (≈ 0.305 µM) | 0.1 (≈ 0.305 µM) | Fc1ccc(-c2nnn(CC#CI)n2)cc1
36 |  |  |  | 0.1 (≈ 0.189 µM) | 0.1 (≈ 0.189 µM) | CCCc1nnn(CC(I)=C(I)I)n1
